Six compounds from patent US20260271925A1, “DYSREGULATION OF PLANKTONIC BACTERIAL METABOLISM” (Lixa Limited, priority 2023, published 2026) can be followed below.

For one experiment, the system named is S. aureus MSSA 278. As to the kind of experiment: Minimum inhibitory concentration by broth microdilution (Example 2). It counts as cell-based, Staphylococcus aureus. The following applies: unit assumed. On the procedure:
(§1) Bacterial strains were maintained as suspensions in 20% (v/v) glycerol/Brain-Heart Infusion at −80° C.
(§2) A standard inoculum was prepared from broth culture.
(§3) The broth culture was diluted in broth to a turbidity equal to a 0.5 McFarland Standard using a spectrophotometer at a wavelength of 620 nm. The 0.5 McFarland Standard was further diluted 1:100 in broth to create the standard inoculum. 50 μl of this standard inoculum was dispensed into every well in the microtitre tray, except the negative controls, where 50 μl of broth was dispensed instead.
(§4) Next, a working concentration at two times the highest target concentration for every antimicrobial was created in broth from stock solutions. 100 μl of this working concentration was pipetted into the first well, and 50 μl of broth media into all other wells. 50 μl of the first well was pipetted out and serially diluted across all wells in the row until the final concentration in the range achieved. 50 μl from the final well was removed and discarded. This produced a concentration range where each well was double the target concentration. All agents were performed in duplicate.
(§5) 96 well trays were incubated at 37° C. for 18±2 hours.

A further experiment has as its system S. aureus 510 (MRSA). Described as above. In kind it is cell-based, Staphylococcus aureus. The following applies: unit assumed. How it is done:
as §1, §2, §3, §4, §5

In the next experiment the test system is K. pneumoniae WACC 790. As to the kind of experiment: Resazurin reduction for the evaluation of metabolic activity (Example 2, FIG. 8). It counts as cell-based, Klebsiella pneumoniae. On the procedure:
as §1
Aerobic respiration was measured in the presence or absence of D-Lactic acid and the presence or absence of companion antibiotics either following incubation and visual recording of the MIC, or in a separate study. For evaluation after completion of MIC determination, the entire volume of the MIC well (100 μl) was mixed by pipetting up and down, then transferred to the equivalent well of a fluorescence-absorbance suitable 96-well plate. Alternatively, cultures were pipetted together as above and incubated overnight at 37° C. in the absence of any antimicrobial compounds. […] After incubation regimes were completed for both procedures, resazurin reduction was evaluated by adding 10 μl of a 0.02% resazurin solution to every well, and incubating the plates with gentle shaking (40 rpm) for a further 90 minutes at 37° C. […]
Following incubation, the 96-well trays were read on a fluorescence-absorbance spectrophotometer, using an excitation frequency of 565 nm and emission frequency of 590 nm. […]
(The colour change of resazurin is a common sign of viable cells or microbes.)

For another experiment, the system named is P. aeruginosa 001-11R. As to the kind of experiment: Minimum inhibitory concentration by broth microdilution (Example 2). In kind it is cell-based, Pseudomonas aeruginosa. How it is done: Bacterial strains were maintained as suspensions in 20% (v/v) glycerol/Brain-Heart Infusion at −80° C. For use, a loop-full of ice was scraped from the stock and streaked for single colonies on rich media containing 1.8% agar (for Pseudomonas aeruginosa or Klebsiella pneumoniae, Luria-Bertani medium; for Staphylococcus aureus or Streptococcus pneumoniae, Trypticase Soy agar) and incubated overnight at 37° C.
A standard inoculum was prepared from broth culture. 1 to 3 colonies from an overnight agar culture plate were transferred to 5 ml of broth media and incubated at 37° C. with shaking (200 rpm) until turbidity was greater than that of a 0.5 McFarland Standard (overnight). The following broth media were used: Cation-adjusted Mueller-Hinton broth (caMHB—all strains); Roswell Park Memorial Institute medium (RPMI 1640, phenol red-free—S. aureus); Trypticase Soya Broth (TSB—S. aureus, S. pneumoniae); Todd Hewitt Broth (THB—S. pneumoniae), M63 minimal medium, supplemented with 0.2% glucose (M63—K. pneumoniae).
as §3, §4, §5
A general note: Broth dilution looks for growth in wells or tubes with falling amounts of substance.

Experiment [1] deals with bioluminescent col^R E. coli Xen14. As to the kind of experiment: Murine peritoneal-sepsis model, CD1 male mice challenged IP (Example 6). In kind it is in vivo, Escherichia coli. To be noted: for survival of infected mice: up to 72 h post-infection, 8 mice per group, Sodium D-Lactate 1000 mg/kg single oral dose, colistin 1 mg/kg IP at 0, 4, 8 and 12 h. How it is done:
Bioluminescent col^R E. coli Xen14 was streaked onto a 5% sheep blood agar plate containing 30 μg/ml kanamycin and incubated overnight (o/n) at 37° C. in normal air. The plate was first checked on a Lumina XRMS Ill machine to ensure bioluminescence, then a loopful of the o/n growth was suspended into 10 mL Luria Bertani (LB) broth to A600 nm=0.05. The suspension was incubated at 37° C. for approx. 3 h until A600 nm=0.5 (equivalent to approx. 5×10^8 CFU/mL). The bacterial suspension was centrifuged at 4,000×g for 5 min, resuspended and washed twice in phosphate buffered saline (PBS, pH 7.2) resuspended again in PBS and then placed on wet ice and used for mouse infection within 10 min of preparation as described below.
Outbred Swiss male (CD1) mice, 6-7 weeks (approx. 26-33 g, 8 mice per group) obtained from the Laboratory Animal Services breeding facility of The University of Adelaide, were used in these experiments. Mice had access to food and water ad libitum. The Animal Ethics Committee of The University of Adelaide (approval number S-2022-044) reviewed and approved all animal experiments. The study was conducted in compliance with the Australian Code of Practice for the Care and Use of Animals for Scientific Purposes (8th Edition 2013) and the South Australian Animal Welfare Act 1985.
Each mouse was challenged intraperitoneally (IP) with approx. 1×10^8 CFU of the bioluminescent col^R E. coli Xen14 in 200 μL PBS containing 3% porcine stomach mucin type Ill (Sigma Aldrich) and subjected to bioluminescence imaging in both ventral and dorsal positions on the IVIS Lumina XRMS Series Ill system while under anaesthesia. […]
Aliquots of blood samples (approx. 50 μL) were taken by submandibular (facial vein) bleeding from individual mice in all groups at 4 h for bacterial enumeration. […] In all experiments, signals were collected from a defined region of interest and total flux intensities (photons/s) analysed using Living Image Software 4.7.3. Survival rates for the groups were recorded. […]

The test system of experiment [2] is Pseudomonas aeruginosa clinical isolates from patients with cystic fibrosis. As to the kind of experiment: Resazurin staining of planktonic cultures, metabolic activity (Example 1). In kind it is cell-based. To be noted: resorufin fluorescence; 24 clinical isolates; 24 h D-Lactic acid treatment. On the procedure: Clinical isolates of Pseudomonas aeruginosa collected from patients with cystic fibrosis were phenotyped and stored as 50% glycerol stocks at −70° C.±2° C. Clinical isolates were thawed and streaked out on blood agar plates to grow at 37° C., 5% CO2 for 12-24 hours, or until isolated colonies were large enough to sustain further culturing could be selected. Isolated colonies were looped into 5 mL of LB broth and incubated overnight at 37° C., 5% CO2 with gentle shaking to achieve stationary phase (B0).
B0 cultures were diluted 1:1000 in Pseudomonas minimal medium (herein referred to as PMM) to achieve approximately […], then 150 μL of each diluted culture was transferred to wells of a 96 well mitrotitre tray and incubated overnight at 37° C., 5% CO2. D-Lactic acid was then applied by adding 50 μL of appropriately stock solutions diluted in PMM (or vehicle-only in the case of control wells) and incubating for a further 24 hours at 37° C., 5% CO2. 20 μL culture supernatant was then transferred to wells containing 180 μL fresh PMM, culture density determined by measuring the absorbance at 595 nm (using a ThermoFisher Multiskan FC plate reader). […]
Viable cells reduce the blue resazurin dye to the pink, fluorescent resorufin form. Following incubation fluorescence was quantified by excitation wavelength of 540 nm and an emission wavelength of 590 nm using Enspire microplate reader. […]

The test system of experiment [3] is P. aeruginosa strain WACC91. Put plainly: Resazurin reduction of planktonic cultures in M63 (glucose), D- versus L-Lactic acid (Example 3). It counts as cell-based, Pseudomonas aeruginosa. To be noted: resorufin fluorescence; compared to vehicle only treatment; M63 (glucose); 24 h. On the procedure: . Viable cells reduce the blue resazurin dye to the pink, fluorescent resorufin form. Following incubation fluorescence was quantified by excitation wavelength of 540 nm and an emission wavelength of 590 nm using Enspire microplate reader.
P. aeruginosa strain WACC91 was maintained as a suspension in 20% (v/v) glycerol/Brain-Heart Infusion at −80° C. For use, a loop-full of ice was scraped from the stock and streaked for single colonies on LB media containing 1.8% agar and incubated overnight at 37° C. Isolated colonies were looped into 5 mL of LB broth and incubated at 37° C. with shaking until turbidity was greater than that of a 1.0 McFarland Standard (3-4 h).
The broth culture was diluted in M63 minimal media containing 0.2% (w/v) glucose as the sole carbon source to a turbidity equal to a 1.0 McFarland standard using a spectrophotometer at a wavelength of 595 nm. This culture was then diluted 1:100 in M63 (glucose) and 100 μL together with an additional 50 μL was transferred to each well of a 96 well microtitre tray and incubated overnight at 37° C., 5% CO2. D-Lactic acid, L-Lactic acid, or vehicle only (sterile H2O) was then applied by adding 50 μL of appropriate stock solutions diluted in M63 (glucose) and incubating for a further 24 hours at 37° C., 5% CO2. Culture metabolic activity was then determined using resazurin reduction as described above in Example 1.

The subject of a further experiment is S. aureus 29213. Put plainly: Minimum inhibitory concentration of metal salts by broth microdilution in Trypticase Soya broth (Example 4). It counts as cell-based, Staphylococcus aureus. How it is done:
(§6) Bacterial strains were maintained as suspensions in 20% (v/v) glycerol/Brain-Heart Infusion at −80° C. For use, a loop-full of ice was scraped from the stock and streaked for single colonies on Trypticase Soya agar containing 1.8% agar and incubated overnight at 37° C.
(§7) A standard inoculum was prepared from broth culture. One to three colonies from an overnight agar culture plate were transferred to 5 ml of broth media and incubated at 37° C. with shaking (200 rpm) until turbidity was greater than that of a 0.5 McFarland Standard (overnight). All assays were performed in Trypticase Soya broth.
as §3
(§8) Next, a working concentration at two times the highest target concentration for every salt (in aqueous solution) was created in broth from stock solutions. 100 μl of this working concentration was pipetted into the first well, and 50 μl of broth media into all other wells. 50 μl of the first well was pipetted out and serially diluted across all wells in the row until the final concentration in the range achieved. 50 μl from the final well was removed and discarded. This produced a concentration range where each well was double the target concentration. All agents were performed in duplicate.
as §5

The next experiment has as its system S. aureus MRSA 510. The experiment is described as above. It counts as cell-based, Staphylococcus aureus. On the procedure:
as §6, §7, §3, §8, §5

The mark [4] stands for this setting: antibiotic + 1 mM D-Lactic acid.
Setting [5] is: antibiotic + 10 mM D-Lactic acid.

≈ marks a conversion by molar mass, not a printed value.

With `CO[C@H]1/C=C/O[C@@]2(C)Oc3c(C)c(O)c4c(O)c(c(/C=N/N5CCN(C)CC5)c(O)c4c3C2=O)NC(=O)/C(C)=C\C=C\[C@H](C)[C@H](O)[C@@H](C)[C@@H](O)[C@@H](C)[C@H](OC(C)=O)[C@@H]1C` [rifampicin], the MIC + 1 mM D-Lactic acid with S. aureus MSSA 278 (setting [4]) and in the experiment on S. aureus 510 (MRSA) (setting [4]) was 8 ng/mL each time. For the same compound, the MIC + 10 mM D-Lactic acid in the experiment on S. aureus MSSA 278 (setting [5]) and in the experiment on S. aureus 510 (MRSA) (setting [5]) was 8 ng/mL in each case. Also, the MIC with S. aureus MSSA 278 (antibiotic alone) stood at 0.015 µg/mL (≈ 0.0182 µM); in the experiment with S. aureus 510 (MRSA) (antibiotic alone) it was 0.06 µg/mL (≈ 0.0729 µM).
Take colistin: the “Relative metabolic activity, antibiotic plus D-Lactic acid versus antibiotic only” value with K. pneumoniae WACC 790 (plus 10 mM D-Lactic acid) was “enhances metabolic activity suppression”. Also, in the experiment on P. aeruginosa 001-11R (setting [4]), the “MIC + 1 mM D-Lactic acid” value is 1.0. Also, in the experiment with P. aeruginosa 001-11R (setting [5]), the “MIC + 10 mM D-Lactic acid” value was determined as 1.0. The same compound had an MIC in the experiment on P. aeruginosa 001-11R (antibiotic alone) of 2.0. For the same compound, the “survival of infected mice” value in experiment [1] is “three out eight”.
On to `C[C@@H](O)C(=O)O` [D-Lactic acid, (2R)-2-hydroxypropanoic acid], for which the “inhibition of metabolic activity” value in experiment [2] is recorded as 90%; in [3], over 50%.
Regarding `[Zn+2]` [Zn^2+], the “MIC D-Lactate salt” value in the experiment on S. aureus 29213 (metal ion as D-Lactate salt) and in the experiment with S. aureus MRSA 510 (metal ion as D-Lactate salt) was 4 mM each time. In addition, the “MIC (NO3)2 salt” value with S. aureus 29213 (metal ion as nitrate salt) and in the experiment on S. aureus MRSA 510 (metal ion as nitrate salt) was 8 mM in each case.
As to `C[C@@H](O)C(=O)[O-].[Na+]` [Sodium D-Lactate], the “treatment effectiveness (protection)” value in experiment [1] (single oral dose of 1000 mg/kg) is listed as “not protective”. Moreover, in experiment [1], the “survival of infected mice” value was “succumbed to infection by 12 h post-challenge”.
Regarding `O=C(O)c1cn(C2CC2)c2cc(N3CCNCC3)c(F)cc2c1=O` [Ciprofloxacin], the “Relative metabolic activity, antibiotic plus D-Lactic acid versus antibiotic only” value in the experiment with K. pneumoniae WACC 790 (plus 0.1 mM D-Lactic acid) is given as “enhances metabolic activity suppression”.
